Results taken from US7718641B2, “Pyrrolo [3,4-H] isoquinoline compounds and methods for modulating gated ion channels” (Aros Pharma ApS, priority 2005, dated 2010).

Target: T1, heteromeric hASIC1a+3 (Homo sapiens, UniProt P78348+Q9UHC3)
T1 sequence (P78348 1-528): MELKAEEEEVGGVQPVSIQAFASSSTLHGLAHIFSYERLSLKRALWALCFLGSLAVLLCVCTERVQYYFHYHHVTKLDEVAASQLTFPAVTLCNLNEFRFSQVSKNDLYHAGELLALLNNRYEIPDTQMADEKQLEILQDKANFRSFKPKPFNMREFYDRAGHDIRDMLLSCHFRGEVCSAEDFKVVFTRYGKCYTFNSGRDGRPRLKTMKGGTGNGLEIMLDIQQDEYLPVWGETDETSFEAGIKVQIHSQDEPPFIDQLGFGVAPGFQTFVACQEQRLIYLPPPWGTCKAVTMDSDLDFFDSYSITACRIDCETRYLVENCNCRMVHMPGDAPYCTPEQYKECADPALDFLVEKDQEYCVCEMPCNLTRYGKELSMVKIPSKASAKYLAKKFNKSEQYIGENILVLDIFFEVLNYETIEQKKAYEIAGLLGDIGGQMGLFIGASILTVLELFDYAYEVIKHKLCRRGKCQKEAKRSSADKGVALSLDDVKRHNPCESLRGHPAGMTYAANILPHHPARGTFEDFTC
T1 sequence (Q9UHC3 1-531): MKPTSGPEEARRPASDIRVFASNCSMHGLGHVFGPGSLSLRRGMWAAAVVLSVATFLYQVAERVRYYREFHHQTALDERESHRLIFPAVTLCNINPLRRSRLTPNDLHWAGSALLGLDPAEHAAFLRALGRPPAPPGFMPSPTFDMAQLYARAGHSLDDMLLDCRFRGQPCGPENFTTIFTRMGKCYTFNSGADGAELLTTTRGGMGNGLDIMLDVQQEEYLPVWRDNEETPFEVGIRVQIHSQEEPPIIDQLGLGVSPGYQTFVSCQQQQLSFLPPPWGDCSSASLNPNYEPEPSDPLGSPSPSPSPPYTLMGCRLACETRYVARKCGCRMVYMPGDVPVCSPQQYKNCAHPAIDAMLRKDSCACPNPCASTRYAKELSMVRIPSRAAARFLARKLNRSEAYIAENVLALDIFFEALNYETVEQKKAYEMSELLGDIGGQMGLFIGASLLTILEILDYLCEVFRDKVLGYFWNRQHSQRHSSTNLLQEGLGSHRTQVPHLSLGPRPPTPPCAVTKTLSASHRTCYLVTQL
Experiment: Whole-cell patch clamp of HEK293 cells co-expressing hASIC1a and hASIC3
Type: cell-based
Parameters: expressed in transfected cells; host or cells: HEK293
Details: 10 μM, HEK293, -60 mV, pH 7.4 to pH 6.5 for 5 sec, n=3
Protocol: HEK293 cells were transfected either with hASIC1a alone or co-transfected with hASIC1a and hASIC3. Acid-induced inward currents were recorded in the presence and absence of compound A (10 μM) using the whole-cell configuration of the patch-clamp method (voltage clamp mode).
All experiments are performed at room temperature (20-25° C.) in voltage clamp using conventional whole cell patch clamp methods (Neher, E., et al. (1978) Pfluegers Arch 375:219-228).
Coverslips with the cells are transferred to a 15 μl experimental chamber mounted on the stage of an inverted microscope (IMT-2, Olympus) supplied with Nomarski optics. […] The cells are held at a holding voltage of −60 mV and at the start of each experiment the current is continuously measured for 45 s to ensure a stable baseline. […] Current amplitudes are measured at the peak of the responses, and effect of the compounds is calculated as the amplitude at compound equilibrium divided by the amplitude of the current evoked by the pulse just before the compound was included. […]
FIGS. 4A and 4B show response to acidic saline in the absence or presence of 10 μM of Compound A recorded from HEK293 cells expressing either hASIC1a alone or HEK293 cells co-expressing hASIC1a and hASIC3 [voltage clamped at −60 mV, extracellular solution surrounding cells was changed rapidly from pH 7.4 to pH 6.5 for 5 sec] […]

effect on acid-induced inward current, hASIC1a and hASIC3 co-expressed: effectively modulates the activity
Structure (SMILES): COc1ccc(F)cc1-c1cc2c(c3c1CCN(C)C3)NC(=O)/C2=N/O [Compound A, 5-(5-fluoro-2-methoxyphenyl)-6,7,8,9-tetrahydro-3-(hydroxyimino)-8-methyl-1H-pyrrolo[3,2-h]isoquinoline-2(3H)-one]
